For data set [1], the target named is T1, purified human immunodeficiency virus type-1 integrase (HIV-1 IN) (Human immunodeficiency virus type 1 group M subtype B, UniProt P12497). Briefly: Integrase assay: 3'-processing and strand transfer (3'-end joining), 32P-labeled oligonucleotide, gel/PhosphorImager, Mn2+ cofactor.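 Further: enzyme at 200 nM preincubated with inhibitor 30 min at 30°C, then 20 nM labeled 21-mer DNA for 1 h, inhibition relative to enzyme without drug, background from DNA alone.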 The conditions noted are these: purified IN 200 nM, 7.5 mM MnCl2, 30°C.
Text: (§1) The HPLC purified oligonucleotides AE117 (5'-[sequence]-3'); AE118 (5'-[sequence]-3'); AE157 (5'-[sequence]-3'); AE146 (5'-[sequence]-3'); AE156 (5'-[sequence]-3'); RM22M (5'-[sequence]-3'); and RMAB2 (5'-[sequence]-3') were purchased from Midland Certified Reagent Company (Midland, TX). An expression system for the wild-type integrase and the IN^50-212 (F185K) were obtained from the Laboratory of Molecular Biology, NIDDK, NIH, Bethesda, MD.
(§2) To analyze the extent of 3'-processing and strand transfer using 5'-end labeled substrates, AE118 was 5'-end labeled using T4 polynucleotide kinase (Gibco BRL) and γ[^32P]-ATP (Dupont-NEN). […] The kinase was heat-inactivated and AE117 was added to the same final concentration. The mixture was heated at 95°C, allowed to cool slowly to room temperature, and run through a G-25 Sephadex quick spin column (Boehringer Mannheim, Indianapolis, IN) to separate annealed double-stranded oligonucleotide from unincorporated label.
(§3) To determine the extent of 3'-processing and strand transfer, integrase was preincubated at a final concentration of 200 nM with the inhibitor in a reaction buffer (50 mM NaCl, 1 mM HEPES, pH 7.5, 50 µM EDTA, 50 µM dithiothreitol, 10% glycerol (w/v), 7.5 mM MnCl2, 0.1 mg/ml bovine serum albumin, 10 mM 2-mercaptoethanol, 10% dimethyl sulfoxide, and 25 mM MOPS, pH 7.2) at 30°C for 30 minutes. Then, 20 nM of the 5'-end ^32P-labeled linear oligonucleotide substrate was added, and incubation was continued for an additional one hour. Reactions were quenched by the addition of an equal volume (16 µl) of loading dye (98% deionized formamide, 10 mM EDTA, 0.025% xylene cyanol and 0.025% bromophenol blue). An aliquot (5 µl) was electrophoresed on a denaturing 20% polyacrylamide gel (0.09 M tris-borate pH 8.3, 2 mM EDTA, 20% acrylamide, 8M urea).
(§4) Gels were dried, exposed in a PhosphorImager cassette, and analyzed using a Molecular Dynamics PhosphorImager (Sunnyvale, CA). Percent inhibition was calculated using the following equation: %I = 100 X [1-(D-C)/(N-C)] [formula] where C, N, and D are the fractions of 21-mer substrate converted to 19-mer (3'-processing product) or strand transfer products for DNA alone (C), DNA plus integrase (N), and integrase plus drug (D). All IC50 values were determined by plotting the drug concentration versus percent inhibition, and determining the concentration which produced 50% inhibition.
Another data set deals with HIV-1 infected CEM cells. The data set can be described thus: Anti-HIV assay in cultured CEM cells (NCI Antiviral Drug Screen, XTT formazan). The class given is cell-based.
Data set [2] can be described thus: Cytotoxicity control in uninfected CEM cells (XTT formazan). The class given is cell-based. The conditions noted are these: human, read-out: Cell data (µM) CC50: 50% cytotoxic concentration; for CC50 at 6 days: uninfected T4 lymphocytes (CEM cell line); for CC50 at 144 h: 6 days.
Experimental: (§5) The anti-HIV drug testing was performed at NCI based on a protocol described by Weislow et al.^36 All compounds were dissolved in dimethyl sulfoxide and diluted 1:100 in cell culture medium. Exponentially growing T4 lymphocytes (CEM cell line) were added at 5000 cells per well. Frozen virus stock solutions were thawed immediately before use, suspended in complete medium to yield the desired multiplicity of infection (m. o. i. ≈ 0.1), and added to the microtiter wells, resulting in a 1:200 final dilution of the compound. Uninfected cells with the compound served as a toxicity control, and infected and uninfected cells without the compound served as basic controls.
(§6) Cultures were incubated at 37°C in a 5% CO2 atmosphere for 6 days. The tetrazolium salt, XTT was added to all wells, and cultures were incubated to allow formazan color development by viable cells. Individual wells were analyzed spectrophotometrically to quantitate formazan production, and in addition were viewed microscopically for detection of viable cells and confirmation of protective activity.
For data set [3], the target named is T1, purified human immunodeficiency virus type-1 integrase (HIV-1 IN). Briefly: biochemical.
Text: as §1, §2, §3, §4
The next data set has as its target T2, HIV-1 IN (Human immunodeficiency virus type 1 group M subtype B, UniProt P12497).
T2 construct: An expression system for the wild-type integrase; made in house
The data set can be described thus: Integrase assay with Mg+2 as cofactor. It is filed as biochemical. To be noted: compared with Mn+2. How it is done:
A 21-mer oligonucleotide corresponding to the last 21 bases on the HIV-1 viral DNA in the U5 region of long terminal repeat (LTR) was radiolabeled with ^32P. This is shown in the Figs. 2 and 3 as a band corresponding to DNA alone. Integrase will cleave the last two bases of this DNA in the presence of Mn^+2 or Mg^+2 to give a 19-mer DNA substrate (lane 2) which runs faster on the gel and is indicated as 19-mer on the Figures. When an inhibitor is added this process is blocked, therefore the original 21-mer DNA would not be cut. When an inhibitor is added at various concentrations, percent inhibition at every concentration will be calculated by quantification of the intensity of each band using an Imagequant program.
The gels are run using polyacrylamide according to the standard procedures. Upon completion of electrophoresis run, the gels are dried and exposed to a phosphorimager cassette. The cassettes are analyzed by the phosphorimager, and the bands are shown on a computer screen. The intensity of each band is quantitated, plotted against concentrations of drugs, and the IC50 values are calculated from the graphs.

For data set [4], the target named is T1, purified human immunodeficiency virus type-1 integrase (HIV-1 IN).
Text: as §1, §2, §3, §4
[5] abbreviates: Integrase Assay IC50 (µM) 3'-Processing.
Where [6] appears, read: Human immunodeficiency virus 1, CCRF-CEM, 144 h, HIV-1 infected CEM cells, 6 days, XTT, read-out: Cell data (µM) EC60: 50% effective concentration.
Where [7] appears, read: Human immunodeficiency virus 1, CCRF-CEM, 144 h, read-out: Cell data (µM) EC60: 50% effective concentration, HIV-1 infected CEM cells, 6 days, XTT.
[8] abbreviates: read-out: Integrase Assay IC50 (µM) 3'-Processing.

Where “and” joins values, the source holds several entries; their conditions need not be identical. Equal values may be shown once. Read-outs that look alike come from different tables or passages of the source. Bounds are passed on as bounds.

As a reminder, the IC50 is the concentration that gives 50% inhibition.

Experimental for HIV-1 infected CEM cells: as §5, §6

For `O=C1Sc2ccc(Cl)cc2C(=O)N2CCSC12` (racemic) [Compound 2, (±)-7-Chloro-2,3-dihydro-5H-thiazolo[2,3-c][1,4]benzothiazepine-5,11 (11aH)-dione], the IC50 in data set [1] (setting [5]) was 151 µM and 105 µM; in data set [3] it was 120 µM and 60 µM. Moreover, the EC50 with HIV-1 infected CEM cells (setting [6]) was greater than 50 µM. Besides, the CC50 at 6 days in data set [2] was greater than 50 µM.

Regarding `O=C1Sc2ccc(Br)cc2C(=O)N2CCSC12` (racemic) [Compound 3, (±)-7-Bromo-2,3-dihydro-5H-thiazolo[2,3-c][1,4]benzothiazepine-5,11 (11aH)-dione], the figures for the IC50 in data set [1] (setting [5]) and in data set [3] were 58 ± 15 µM and 48 ± 18 µM, respectively.

Regarding `O=C1Sc2ccccc2C(=O)N2CSCC12` (racemic) [Compound 5], the EC50 with HIV-1 infected CEM cells (setting [7]) was greater than 200 µM.

Regarding `O=C1Sc2ccc(Cl)cc2C(=O)N2CSCC12` (racemic) [Compound 6, (±)-7-Chloro-1,11a-dihydro-3H,5H,11H-thiazolo[4,3-c][1,4] benzothiazepine-5,11-dione], the half-maximal inhibitory concentration (IC50) in data set [1] (setting [5]) is 158 µM and 111 µM; in data set [3] it was 160 µM and 110 µM. Further, in the data set on HIV-1 infected CEM cells (setting [6]), the EC50 was greater than 100 µM. Also, in data set [2], the CC50 at 6 days was greater than 100 µM.

Consider `O=C1Sc2ccc(Br)cc2C(=O)N2CSCC12` (racemic) [Compound 7, (±)-7-Bromo-1,11a-dihydro-3H,5H,11H-thiazolo[4,3-c][1,4] benzothiazepine-5,11-dione], for which the IC50 in data set [1] (setting [5]) amounted to 87 ± 24 µM; in data set [3], 74 ± 32 µM. In the data set with HIV-1 infected CEM cells (setting [6]), the EC50 is greater than 200 µM. Moreover, the CC50 at 6 days in data set [2] is greater than 200 µM.

On to `Cc1ccc2c(c1)C(=O)N1CSCC1C(=O)S2` (racemic) [Compound 8, (±)-1,11a-Dihydro-7-methyl-3H,5H,11H-thiazolo[4,3-c][1,4] benzothiazepine-5,11-dione], for which the IC50 in data set [1] (setting [5]) is 52 µM; in data set [3], 63 µM. In addition, the CC50 at 6 days in data set [2] was determined as 35 µM.

Take `O=C1Sc2cc([N+](=O)[O-])ccc2C(=O)N2CSCC12` (racemic) [Compound 9, (±)-1,11a-Dihydro-8-nitro-3H,5H,11H-thiazolo[4,3-c][1,4] benzothiazepine-5,11-dione]: the IC50 was found to be 90 ± 27 µM in data set [1] (setting [5]) and 100 ± 36 µM in data set [3]. For the same compound, in the data set on HIV-1 infected CEM cells (setting [6]), the EC50 is greater than 50 µM. Also, in data set [2], the CC50 at 6 days was greater than 50 µM.

As for `COc1ccc2c(c1)C(=O)N1CSCC1C(=O)S2` (racemic) [Compound 10, (±)-1,11a-dihydro-7-methoxy-3H,5H,11H-thiazolo[4,3-c][1,4]benzothiazepine-5,11-dione], the concentration for half-maximal inhibition (IC50) is 155 µM and 275 µM in data set [1] (setting [5]); 155 µM and 245 µM in data set [3]. Further, in the data set with HIV-1 infected CEM cells (setting [6]), the EC50 was greater than 200 µM. In data set [2], the CC50 at 6 days is greater than 200 µM.

Consider `O=C1Sc2ccccc2C(=O)N2COCC12` (racemic) [Compound 12, (±)-1,11a-Dihydro-3H,5H,11H-oxazolo[4,3-c][1,4]benzothiazepine-5,11-dione], for which the IC50 in data set [1] (setting [5]) and in data set [3] was greater than 333 µM throughout.

In the case of `Cc1ccc2c(c1)C(=O)N1CC[S@@+]([O-])[C@@H]1C(=O)S2` (racemic) [Compound 15, (±)-cis-2,3-Dihydro-7-methyl-5H-thiazolo[2,3-c][1,4]benzothiazepme-5,11 (11aH)-dione 1-Oxide], the EC50 in the data set with HIV-1 infected CEM cells (setting [7]) was greater than 100 µM. Further, the CC50 at 144 h in data set [2] is greater than 100 µM.

Consider `O=C1Sc2cc3ccccc3cc2C(=O)N2CCSC12` (racemic) [Compound 19, (±)-2,3-Dihydro-5H-naphto[2,3-f]thiazolo[2,3-c][1,4]thiazepine-5,13(13aH)-dione], for which the EC50 with HIV-1 infected CEM cells (setting [7]) stood at 60 µM. At HIV-1 IN, the “inhibition of IN in the presence of Mg+2” value is recorded as “active in the presence of Mg^+2 within the same concentration range as in Mn^+2”.

As for `O=C1Sc2cc3ccccc3cc2C(=O)N2CSCC12` (racemic) [Compound 20, (±)-1,13a-Dihydro-3H,5H,11H-naphto[2,3-f]thiazolo[4,3-c][1,4] thiazepine-5,13-dione], the EC50 with HIV-1 infected CEM cells (setting [7]) lay within 279 to 286 µM. Further, the “inhibition of IN in the presence of Mg+2” value on HIV-1 IN is “active in the presence of Mg^+2 within the same concentration range as in Mn^+2”.

Consider `O=C1c2ccccc2SC(O)(c2ccccc2)C2CCCN12` (racemic) [Compound 26, (±)-2,3,11,11a-Tetrahydro-11-hydroxy-11-phenyl-1H,5H-pyrrolo [2,1-c][1,4]benzothiazepin-5-one], for which the IC50 in data set [1] (setting [5]) and in data set [3] was greater than 1000 µM throughout.

In the case of `CN1CCN([C@@H]2Sc3ccccc3C(=O)N3CCC[C@@H]23)CC1` (racemic) [Compound 27, (±)-cis-2,3,11,11a-Tetrahydro-11-(4-methylpiperazin-1-yl)-1H,5H-pyrrolo[2,1-c][1,4]benzothiazepin-5-one], the IC50 in data set [1] (setting [5]) and in data set [3] was greater than 1000 µM in each case. Also, in the data set with HIV-1 infected CEM cells (setting [6]), the EC50 was greater than 125 µM. Moreover, the CC50 at 6 days in data set [2] is greater than 125 µM.

Consider `CN1CCN(Cc2ccc3n2Cc2ccccc2SC3c2ccccc2)CC1` (racemic) [Compound 31, (±)-3-[(4-Methylpiperazin-1-yl)methyl]-11-phenyl-5H,11H-pyrrolo [2,1-c][1,4]benzothiazepine], for which the IC50 in data set [1] (setting [5]) and in data set [3] was greater than 1000 µM in each case.

`O=C1Sc2ccccc2C(=O)N2CCSC12` (centres unmarked) [Compound 1]: the EC50 in the data set on HIV-1 infected CEM cells (HIV-1 infected CEM cells, 6 days, XTT, read-out: Cell data (µM) EC60: 50% effective concentration) was 107 µM; in the data set with HIV-1 infected CEM cells (setting [7]), 107 ± 26 µM. Besides, the “inhibition of IN in the presence of Mg+2” value on HIV-1 IN is recorded as “active in the presence of Mg^+2 within the same concentration range as in Mn^+2”.

Regarding `COc1cc2c(cc1OC)C(=O)N1CSCC1C(=O)S2` (centres unmarked) [Compound 11], the EC50 with HIV-1 infected CEM cells (setting [7]) is greater than 50 µM.

On to `COc1cc2c(cc1OC)C(=O)N1CCCC1C(=O)S2` (centres unmarked) [Compound 13], for which the concentration for half-maximal inhibition (IC50) in data set [4] and in data set [1] (setting [8]) was greater than 1000 µM in each case. The EC50 in the data set with HIV-1 infected CEM cells (setting [7]) is greater than 200 µM.

On to `O=C1Sc2ccccc2C(=O)N2CCCCC12` (centres unmarked) [Compound 14], for which the EC50 in the data set on HIV-1 infected CEM cells (setting [7]) is greater than 200 µM.

On to `CC(=O)OC1Sc2ccccc2C(=O)N2CCCC12` (centres unmarked) [Compound 21], for which the concentration for half-maximal inhibition (IC50) in data set [4] and in data set [1] (setting [8]) was greater than 1000 µM in each case. Further, the EC50 in the data set with HIV-1 infected CEM cells (setting [7]) is greater than 200 µM.

Take `COC1Sc2ccccc2C(=O)N2CCCC12` (centres unmarked) [Compound 22]: the IC50 in data set [1] (setting [5]) and in data set [3] was greater than 1000 µM throughout. Besides, in the data set on HIV-1 infected CEM cells (setting [7]), the EC50 was greater than 200 µM. Besides, the CC50 at 144 h in data set [2] was greater than 200 µM.

Turning to `O=C1c2ccccc2SCC2CSC(c3ccccc3)N12` (centres unmarked) [Compound 23], the results for the IC50 in data set [1] (setting [5]) and in data set [3] were 111 µM and 288 µM, respectively.

On to `COc1cc2c(cc1OC)C(=O)N1CCCC1CS2` (centres unmarked) [Compound 24], for which the half-maximal inhibitory concentration (IC50) in data set [4] and in data set [1] (setting [8]) was greater than 1000 µM throughout. Further, the EC50 in the data set with HIV-1 infected CEM cells (setting [7]) was greater than 200 µM.

Take `O=C1c2ccccc2SC(O)C2CCCN12` (centres unmarked) [Compound 25]: the IC50 in data set [4] and in data set [1] (setting [8]) was greater than 1000 µM throughout. In addition, in the data set on HIV-1 infected CEM cells (setting [7]), the EC50 was greater than 200 µM.

With `O=C1Sc2ccccc2Cn2cccc21` [Compound 28], the EC50 in the data set on HIV-1 infected CEM cells (setting [7]) was found to be 146 µM. Also, the CC50 at 144 h in data set [2] is greater than 200 µM.

`CCOC(=O)C1Sc2ccccc2Cn2cccc21` (centres unmarked) [Compound 29]: the IC50 in data set [1] (setting [5]) and in data set [3] was greater than 1000 µM in each case.

For `CN(C)Cc1ccc2n1Cc1ccccc1SC2c1ccc(F)cc1` (centres unmarked) [Compound 30], the IC50 in data set [1] (setting [5]) and in data set [3] was greater than 1000 µM throughout.

The values are drawn from patent EP1187837B1, “THIAZEPINE INHIBITORS OF HIV-1 INTEGRASE” (THE UNITED STATES GOVERNMENT as represented by THE …, priority 1999, dated 2000).
